Measurements: EP0062018A1, “Novel phenyl-piperidines” (priority 1981, dated 1982)
Counter-ions that a name gives are not always drawn. Like-named read-outs stand apart in the source and are kept apart here.

Assays:
rabbit right atria = assay: Chronotropic effect (heart frequency) in isolated spontaneously beating right atria; assay type: cell-based; conditions: for Emax / EC50: Oryctolagus cuniculus, rabbit right atria, heart rate; for Emax: read-out: HR ISA; for EC50: cumulative concentrations, Krebs-buffer pH 7.4, 32°C, read-out: HR EC50; for positive chronotropic effect: result in words, isolated rabbit right atria
Experimental: (§1) Pharmacological studies on cardiac effects on heart frequency and contractility in isolated right atria and papillary muscle from rabbit. Rabbits with an average weight of 2.5 kg were killed by a blow and the hearts were rapidly removed. The right atria and a papillary muscle from the right ventricle were isolated and set up to contract isometrically in an organ bath. The bath contained 50 ml Krebs-buffer (pH 7.4) and the temperature was kept at 32°C. The contractions were measured by means of a force displacement transducer (Grass Model FT03) coupled to a Grass Model 7 Polygraph with a […] (Grass Model 7PIF). The spontaneously beating right atria was stretched to a resting tension high enough to measure the contractions and to trigger a tachograph for registration of the frequency. The papillary muscle was stretched to the length at which maximal tension was developed and was driven at a frequency of 1 Hz by a current 20 per cent above treshold and with a duration of 5 msec. After 60 min. equilibration, dose response curves to cumulative concentrations of isoprenaline were constructed for chronotropic effect, i.e. increase in frequency (atria) and positive inotropic effect, i.e. increase in contractility (papillary muscle). After wash-out similar curves were constructed for the compounds according to the invention. The positive inotropic agent dopamine was included for comparison. In order to establish the maximal chronotropic and inotropic responses of the preparations, isoprenaline was added immediately after the maximal concentrations of the compounds. The maximal effects of the compounds compared with the maximal effect of isoprenaline are expressed as intrinsic activity (ISA).

[1] = tested on: rabbit right ventricle papillary muscle; assay: Positive inotropic effect (contractility) in isolated electrically driven papillary muscle; assay type: cell-based; conditions: Oryctolagus cuniculus; for Emax: papillary muscle, read-out: Tmax ISA; for EC50: rabbit right ventricle papillary muscle, read-out: Tmax EC50
Experimental: as §1

[2] = intrinsic activity: maximal effect compared with maximal effect of isoprenaline
[3] = driven at 1 Hz, Krebs-buffer pH 7.4, 32°C
[4] = Tested after β-blockade, intrinsic activity vs isoprenaline

For `NCCc1ccc(O)c(O)c1` [Dopamine, reference compound], the Emax (rabbit right atria; [2]) was 91%, the EC50 (rabbit right atria) was 14.2 µM and the positive chronotropic effect (rabbit right atria) was “marked positive chronotropic effect in doses which caused positive inotropy”. It also gave an Emax [1, 2] of 78% and an EC50 [1, 3] of 19.7 µM.

With `CCCN1CCCC(c2cc(O)cc(O)c2)C1` (centres unmarked) [Example 1, 3=(3,5=Dihydroxyehenyl)N-n-eroeyleiperidine hydrobromide] the Emax (rabbit right atria; [2]) was 0%, the positive chronotropic effect (rabbit right atria) was “no positive chronotropic effect” and the Emax [1, 2] was 30%. For the same compound, the EC50 [1, 3] was 107 µM.

For `CCN1CCCC(c2cc(O)cc(O)c2)C1` (centres unmarked) [Example 2, 3-(3,5-Dihydroxyehenyl)-N-ethylpiperidine hydrobromide], the Emax (rabbit right atria; [2]) was 0%, the Emax [1, 2] was 32% and the EC50 [1, 3] was 298 µM.

`CN1CCCC(c2cc(O)cc(O)c2)C1` (centres unmarked) [Example 3, 3-(3,5-Dihydroxyphenl)-N-methlpiperidine] showed an Emax (rabbit right atria; [2]) of 0%, an Emax [1, 2] of 37% and an EC50 [1, 3] of 11 µM.

For `CCCCN1CCCC(c2cc(O)cc(O)c2)C1` (centres unmarked) [Example 5], the Emax (rabbit right atria; [4]) was 0%, the Emax [1, 4] was 42% and the EC50 ([1]; Tested after β-blockade) was 18.4 µM.

With `CCCCCN1CCCC(c2cc(O)cc(O)c2)C1` (centres unmarked) [Example 6] the Emax (rabbit right atria; [2]) was 0%, the Emax [1, 2] was 43% and the EC50 [1, 3] was 0.24 µM.

For `CC(C)N1CCCC(c2cc(O)cc(O)c2)C1` (centres unmarked) [Example 7], the Emax (rabbit right atria; [4]) was 0%, the Emax [1, 4] was 26% and the EC50 ([1]; Tested after β-blockade) was 43 µM.

For `CC(C)NCC(O)c1ccc(O)c(O)c1` (centres unmarked) [Isoprenaline, reference compound], the Emax (rabbit right atria; [2]) was 100%, the EC50 (rabbit right atria) was 0.003 µM and the positive chronotropic effect (rabbit right atria) was “marked positive chronotropy in doses significantly lower than those producing positive inotropy”. It also gave an Emax [1, 2] of 100% and an EC50 [1, 3] of 0.01 µM.
